Data taken from patent publication US12390425B1, “Use of tyrosol as a physiological enhancer of creatine and its application in continuous high intensity exercise” (MolTek Nutrition Co., Ltd, priority 2024, dated 2025).

What was measured:
Format in all cases: in vivo
mice [1] = assay: Grip strength test during continuous high-intensity exercise (Experiment 2); settings: for Percentage change of muscle strength (grip strength relative to first exercise): gavage daily 4 weeks: Ty 75 mg/kg tyrosol, CR 260 mg/kg creatine monohydrate, Ty+CR 75 mg/kg+260 mg/kg
Experimental: Animal Experiment 1: Six-week-old mice were used. After one week of acclimation to the environment, the mice were randomly divided into the following groups:
(§1) Control Group: Normal diet, serving as the control group.
(§2) Ty Group: Normal diet, with 75 mg/kg tyrosol administered by gavage daily.
(§3) CR Group: Normal diet, with 260 mg/kg creatine monohydrate administered by gavage daily.
(§4) Ty+CR Group: Normal diet, with 75 mg/kg tyrosol+260 mg/kg creatine monohydrate administered by gavage daily.
(§5) This regimen continued for 4 weeks. The first grip strength test was conducted 30 minutes after the last gavage. The grip strength of the mice's limbs was measured using a grip strength meter. After a 1-hour rest, the mice underwent the first exhaustive swimming exercise. […] The mice were then placed in a weighted swimming tank at a water temperature of 30±1° C. for the exhaustive swimming test. Exhaustion was considered if the mice touched the bottom of the tank three consecutive times within 30 seconds. The detector recorded the mice's bottom-touching instances, and upon determining exhaustion, the swimming tank automatically lifted the mice, recording the exhaustive swimming time.
(§6) 24 hours after the first swimming exercise, the second grip strength test and exhaustive swimming exercise were conducted using the same methods, recording grip strength data and exhaustive swimming time. The third and fourth grip strength tests and exhaustive swimming exercises were conducted 24 hours after the previous exercise, recording the respective data. The gavage regimen remained unchanged during the intervals.
Note: The data compared each group's grip strength in subsequent exercises to their grip strength in the first exercise, reflected the difference in grip strength from the initial value.

mice [2] = assay: Weighted exhaustive swimming test during continuous high-intensity exercise (Experiment 2); settings: for Percentage change of exhaustive exercise time (relative to first exercise): gavage daily 4 weeks: Ty 75 mg/kg tyrosol, CR 260 mg/kg creatine monohydrate, Ty+CR 75 mg/kg+260 mg/kg; for Exhaustive swimming exercise time compared to control group, FIG. 2 / Trend of exhaustive swimming exercise time during continuous exercise, FIG. 2: Ty 75 mg/kg, CR 260 mg/kg, Ty+CR 75+260 mg/kg; for Exhaustive swimming exercise time compared to control group, FIG. 2: 4 weeks; for Trend of exhaustive swimming exercise time during continuous exercise, FIG. 2: four exercises 24 h apart
Experimental: After one week of acclimation to the environment, the mice were randomly divided into the following groups:
as §1, §2, §3, §4, §5, §6
Note: The data compared each group's exhaustive exercise time in subsequent exercises to their exhaustive exercise time in the first exercise, reflected the difference in exhaustive exercise time from the initial value.

mice [3] = assay: Grip strength test during continuous high-intensity exercise (Experiment 3)
Experimental: (§7) Animal Experiment 2: Six-week-old mice were used. After one week of acclimation to the environment, the mice were randomly divided into the following groups:
as §1
(§8) Ty 1 Group: Normal diet, with 2.6 mg/kg tyrosol administered by gavage daily.
(§9) CR 1-3 Groups: Normal diet, with 65 mg/kg, 390 mg/kg, and 1300 mg/kg creatine monohydrate administered by gavage daily.
(§10) Ty+CR 1-4 Groups: Normal diet, with 2.6 mg/kg tyrosol+65 mg/kg creatine monohydrate, 130 mg/kg tyrosol+130 mg/kg creatine monohydrate, 390 mg/kg tyrosol+1300 mg/kg creatine monohydrate, and 2.6 mg/kg tyrosol+1300 mg/kg creatine monohydrate administered by gavage daily.
With the exception of groups Ty 1, CR 1, and Ty+CR 1 which were fed for 8 weeks, all other dosing groups were fed for 4 weeks, with one daily gavage. Groups CR 3, Ty+CR 3, and Ty+CR 4 received their daily gavage dose in two separate administrations each day. Half of the control group was fed for 4 weeks, and the other half for 8 weeks. The first grip strength test was conducted 30 minutes after the last gavage, followed by the first exhaustive swimming exercise after a 1-hour rest. Grip strength and swimming exercise methods were the same as previously described. 24 hours after the first swimming exercise, the second grip strength test and exhaustive swimming exercise were conducted using the same methods, recording grip strength data and exhaustive swimming time. The third and fourth grip strength tests and exhaustive swimming exercises were conducted 24 hours after the previous exhaustive swimming exercise, recording grip strength data and exhaustive swimming time. Groups CR 3 and Ty+CR 4 underwent up to the eighth grip strength test and exhaustive swimming exercise, maintaining the same exercise methods. During the intervals, the gavage regimen for each group remained unchanged.

mice [4] = assay: Grip strength test during continuous high-intensity exercise (Experiment 2); settings: first grip strength test; Ty 75 mg/kg, CR 260 mg/kg, Ty+CR 75+260 mg/kg, 4 weeks
mice [5] = assay: Weighted exhaustive swimming test during continuous high-intensity exercise (Experiment 3)
Experimental: as §7, §1, §8, §9, §10
With the exception of groups Ty 1, CR 1, and Ty+CR 1 which were fed for 8 weeks, all other dosing groups were fed for 4 weeks, with one daily gavage. Groups CR 3, Ty+CR 3, and Ty+CR 4 received their daily gavage dose in two separate administrations each day. Half of the control group was fed for 4 weeks, and the other half for 8 weeks. The first grip strength test was conducted 30 minutes after the last gavage, followed by the first exhaustive swimming exercise after a 1-hour rest. Grip strength and swimming exercise methods were the same as previously described. […]

skeletal muscle of mice = assay: Phosphocreatine and creatine levels in dissected leg skeletal muscle after continuous interval electrical stimulation (Experiment 1); settings: for Creatine (CR) level in skeletal muscle / Phosphocreatine (PCr) level in skeletal muscle / Total creatine (TCr) level in skeletal muscle: 2 weeks diet: CR 5% creatine monohydrate, Ty+CR 1% tyrosol and 5% creatine monohydrate, mean±SE; for Total creatine (TCr) level in skeletal muscle: sum of PCr and CR
Experimental: Animal Experiment: Thirty 8-week-old mice were prepared and acclimated to the laboratory environment for one week before being randomly divided into three groups. Control Group: Normal diet with no added active ingredients, serving as the control group. CR Group: Normal diet supplemented with 5% creatine monohydrate. Ty+CR Group: Normal diet supplemented with 1% tyrosol and 5% creatine monohydrate.
After two weeks of feeding, the mice were anesthetized, and the leg skeletal muscles were dissected, showing clear connective tissue without blood. For muscle contraction tests via electrical stimulation, the muscles were first incubated in a specific physiological buffer solution for 10 minutes to recover from dissection. The muscles were then clamped with aluminum forceps and stimulated using platinum electrodes and a capacitor alternating polarity discharge.
The muscles were subjected to 250 ms electrical stimulation with six intervals, each interval progressively shortened from 4 s to 1 s. After six interval stimulations, a 1-minute observation period followed before the next round, totaling four rounds. The left and right leg muscles of each mouse were labeled, and subjected to the aforementioned electrical stimulation test.
Phosphocreatine (PCr) and creatine (CR) levels were immediately measured in the dissected right leg muscles after the electrical stimulation test. The dissected left leg muscles of all groups were measured for phosphocreatine and creatine levels 5 minutes after the test. Total creatine (TCr) levels were the sum of phosphocreatine and creatine levels. Standard fluorescence assay was used to determine phosphocreatine and creatine levels in muscle samples extracted with perchloric acid precipitation.
Note: Values are expressed as mean±SE, in mmol/kg dry weight.

[6] = CR 1: 65 mg/kg creatine monohydrate, Ty+CR 1: 2.6 mg/kg tyrosol+65 mg/kg creatine monohydrate, 8 weeks
[7] = 5 min later after electrical stimulation
[8] = immediately after electrical stimulation

CN(CC(=O)O)C(=N)N.O [CR, creatine monohydrate]
Percentage change of muscle strength (grip strength relative to first exercise) (mice [1]; First exercise): 1
Percentage change of muscle strength (grip strength relative to first exercise) (mice [1]; Fourth exercise): 76.10%
Percentage change of muscle strength (grip strength relative to first exercise) (mice [1]; Second exercise): 89.24%
Percentage change of muscle strength (grip strength relative to first exercise) (mice [1]; Third exercise): 83.81%
Trend of muscle strength (grip strength) in subsequent exercises, FIG. 1 (mice [1]; four exercises 24 h apart, CR 260 mg/kg, Ty+CR 75+260 mg/kg): decline rate in the creatine group was also rapid
Percentage change of exhaustive exercise time (relative to first exercise) (mice [2]; First exercise): 1
Percentage change of exhaustive exercise time (relative to first exercise) (mice [2]; Fourth exercise): 81.88%
Percentage change of exhaustive exercise time (relative to first exercise) (mice [2]; Second exercise): 95.26%
Percentage change of exhaustive exercise time (relative to first exercise) (mice [2]; Third exercise): 88.10%
Exhaustive swimming exercise time compared to control group, FIG. 2 (mice [2]): did not improve the endurance of the mice at the beginning
Trend of exhaustive swimming exercise time during continuous exercise, FIG. 2 (mice [2]): declined to varying degrees
Muscle strength (grip strength) compared to control group, FIG. 4 (mice [3]; [6]): significantly increased the muscle strength of the mice
Muscle strength (grip strength) compared to control group, FIG. 3 (mice [3]; CR 2: 390 mg/kg creatine monohydrate, Ty+CR 2: 130 mg/kg tyrosol+130 mg/kg creatine monohydrate, 4 weeks): significantly higher than that in the control group
Trend of muscle strength (grip strength) during continuous exercise, FIG. 3 (mice [3]; CR 2: 390 mg/kg creatine monohydrate, Ty+CR 2: 130 mg/kg tyrosol+130 mg/kg creatine monohydrate, four exercises): marked decline in muscle strength
Muscle strength (grip strength) compared to control group, FIG. 1 (mice [4]): significantly increased compared to the control group
Endurance time (exhaustive swimming) compared to control group, FIG. 6 (mice [5]; [6]): did not improve the endurance time of mice
Endurance (exhaustive swimming time), FIG. 5 (mice [5]; CR 2: 390 mg/kg creatine monohydrate, 4 weeks): able to enhance the endurance of mice and prolong exercise time
Creatine (CR) level in skeletal muscle (skeletal muscle of mice; [7]): 22.7 ± 2.8 mmol/kg dry weight
Phosphocreatine (PCr) level in skeletal muscle (skeletal muscle of mice; [7]): 39.7 ± 2.2 mmol/kg dry weight
Total creatine (TCr) level in skeletal muscle (skeletal muscle of mice; [7]): 62.4 ± 3.0 mmol/kg dry weight
Decrease of creatine levels 5 minutes after end of muscle contraction (creatine conversion) (skeletal muscle of mice; immediate vs 5-min-later data within each group): 53.86%
Creatine (CR) level in skeletal muscle (skeletal muscle of mice; [8]): 49.2 ± 3.7 mmol/kg dry weight
Phosphocreatine (PCr) level in skeletal muscle (skeletal muscle of mice; [8]): 13.4 ± 1.2 mmol/kg dry weight
Total creatine (TCr) level in skeletal muscle (skeletal muscle of mice; [8]): 62.6 ± 4.0 mmol/kg dry weight
Levels of creatine, phosphocreatine and total creatine compared to control group (skeletal muscle of mice; immediately after stimulation or 5 minutes later): higher than those in the control group

OCCc1ccc(O)cc1 [Ty, tyrosol]
Percentage change of muscle strength (grip strength relative to first exercise) (mice [1]; First exercise): 1
Percentage change of muscle strength (grip strength relative to first exercise) (mice [1]; Fourth exercise): 85.05%
Percentage change of muscle strength (grip strength relative to first exercise) (mice [1]; Second exercise): 97.40%
Percentage change of muscle strength (grip strength relative to first exercise) (mice [1]; Third exercise): 96.55%
Percentage change of exhaustive exercise time (relative to first exercise) (mice [2]; Fourth exercise): 88.45%
Percentage change of exhaustive exercise time (relative to first exercise) (mice [2]; Second exercise): 97.13%
Percentage change of exhaustive exercise time (relative to first exercise) (mice [2]; Third exercise): 94.54%
Exhaustive swimming exercise time compared to control group, FIG. 2 (mice [2]): significantly higher than that of the control group mice
Trend of exhaustive swimming exercise time during continuous exercise, FIG. 2 (mice [2]): declined to varying degrees
Muscle strength (grip strength) compared to control group, FIG. 1 (mice [4]): did not show a significant increase in muscle strength
